In patent US10988477B2 (Merck Patent GmbH, priority 2018, dated 2021):
pIC50, pKi: −log10 of the molar value.

Tests used:
[1] = target: intracellular GCN2 (phosphorylation of the GCN2 substrate eIF2α) (Homo sapiens, UniProt Q9P2K8); experiment: GCN2 cellular inhibition assay (AlphaScreen SureFire P-eIF2α Ser51, borrelidin-treated U2OS cells); format: cell-based; conditions: biomarker assay, phosphorylated eIF2α Ser51 in borrelidin-treated U2OS cells
Method in brief: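 First, U2OS cells are plated and left overnight at 37 °C. Next, compounds (from 40 μM final, 4-fold steps) and 10 μM borrelidin are added for 1 h, cells lysed, and phospho-Ser51 eIF2α detected by AlphaScreen bead sandwich. Inhibition is computed versus borrelidin-only wells.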

[2] = target: GCN2 kinase (Homo sapiens, UniProt Q9P2K8); experiment: GCN2 enzyme inhibition assay (Transcreener ADP2 fluorescence polarization); format: biochemical; conditions: 280 μM ATP
Method in brief: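 ADP formation read by Transcreener FP after a 1 h, 25 °C kinase reaction containing 280 μM ATP, 200 μM (RS)7 substrate and 4 nM GCN2, pH 7.5 Tris buffer. Compounds (0–8 μM final) were added 10 min before ATP. Percent inhibition gave IC50 and apparent Ki via tight-binding fit.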

[3] = Enzyme activity for compounds of Formula IV, Ki(app), 25° C.
[4] = compounds of Formula II, 4 nM GCN2 kinase

Chain of intracellular GCN2 (phosphorylation of the GCN2 substrate eIF2α) (Q9P2K8 whole entry): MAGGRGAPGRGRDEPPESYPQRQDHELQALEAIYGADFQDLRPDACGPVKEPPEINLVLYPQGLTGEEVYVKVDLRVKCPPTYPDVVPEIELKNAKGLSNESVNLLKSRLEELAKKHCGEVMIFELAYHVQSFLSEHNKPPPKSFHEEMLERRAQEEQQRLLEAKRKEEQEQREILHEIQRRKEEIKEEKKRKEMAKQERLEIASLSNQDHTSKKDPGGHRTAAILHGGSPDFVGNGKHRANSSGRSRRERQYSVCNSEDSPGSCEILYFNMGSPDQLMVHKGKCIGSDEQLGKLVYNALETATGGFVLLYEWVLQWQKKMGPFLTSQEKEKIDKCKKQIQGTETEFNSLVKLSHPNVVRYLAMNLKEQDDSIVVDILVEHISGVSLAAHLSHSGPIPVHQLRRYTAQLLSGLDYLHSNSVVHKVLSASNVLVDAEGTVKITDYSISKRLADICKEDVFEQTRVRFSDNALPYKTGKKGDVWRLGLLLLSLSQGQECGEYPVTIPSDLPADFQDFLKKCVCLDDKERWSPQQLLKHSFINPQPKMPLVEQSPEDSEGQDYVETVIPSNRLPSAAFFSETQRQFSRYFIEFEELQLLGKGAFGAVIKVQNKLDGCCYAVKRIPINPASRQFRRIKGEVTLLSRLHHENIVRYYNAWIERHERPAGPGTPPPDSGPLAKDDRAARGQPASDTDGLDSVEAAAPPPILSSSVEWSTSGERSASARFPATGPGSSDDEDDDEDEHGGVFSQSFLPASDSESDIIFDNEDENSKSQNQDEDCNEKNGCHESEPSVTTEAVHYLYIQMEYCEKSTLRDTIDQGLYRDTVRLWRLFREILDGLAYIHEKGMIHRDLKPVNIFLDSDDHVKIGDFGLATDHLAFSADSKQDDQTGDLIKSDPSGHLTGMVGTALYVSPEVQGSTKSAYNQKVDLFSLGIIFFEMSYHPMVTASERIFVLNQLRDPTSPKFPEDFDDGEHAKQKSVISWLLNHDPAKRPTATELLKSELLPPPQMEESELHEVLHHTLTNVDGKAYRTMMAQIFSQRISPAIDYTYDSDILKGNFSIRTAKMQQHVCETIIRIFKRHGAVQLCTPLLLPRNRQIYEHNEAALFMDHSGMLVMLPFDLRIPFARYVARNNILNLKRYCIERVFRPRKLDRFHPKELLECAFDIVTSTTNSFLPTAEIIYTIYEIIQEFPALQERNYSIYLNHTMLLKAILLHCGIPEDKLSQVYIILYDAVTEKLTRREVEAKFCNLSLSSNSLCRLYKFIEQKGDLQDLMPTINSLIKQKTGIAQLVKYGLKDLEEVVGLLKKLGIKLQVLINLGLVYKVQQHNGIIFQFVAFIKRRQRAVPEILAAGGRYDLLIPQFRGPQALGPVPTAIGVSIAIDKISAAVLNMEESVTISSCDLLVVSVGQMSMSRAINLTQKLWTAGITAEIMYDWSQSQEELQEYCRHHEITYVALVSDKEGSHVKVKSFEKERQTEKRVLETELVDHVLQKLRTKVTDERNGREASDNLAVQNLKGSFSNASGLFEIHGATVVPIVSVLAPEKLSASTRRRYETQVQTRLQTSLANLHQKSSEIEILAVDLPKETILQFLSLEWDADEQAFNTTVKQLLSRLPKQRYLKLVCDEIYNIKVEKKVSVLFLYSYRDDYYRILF
Chain of GCN2 kinase (Q9P2K8 whole entry): as above

Row | SMILES | pIC50 ([1]; compounds of Formula IV) | pKi [2, 3] | pIC50 ([1]; compounds of Formula II) | pKi [2, 4] | pIC50 [2, 4]
1 | CS(=O)(=O)NC[C@H]1CCCN(c2cc(-c3cnc4ccc(C(F)(F)F)nn34)ncn2)C1 [II-291, (S)—N-((1-(6-(6-(Trifluoromethyl)imidazo[1,2-b]pyridazin-3-yl)pyrimidin-4-yl)piperidin-3-yl)methyl)methanesulfonamide] |  |  | > 6.30 | > 8.00 | 
2 | CS(=O)(=O)NCC1CCCN(c2cc(-c3cnc4ccc(C(F)F)nn34)cc(N3CC4(CCO4)C3)n2)C1 (stereo not drawn) [II-86, N-((1-(4-(6-(Difluoromethyl)imidazo[1,2-b]pyridazin-3-yl)-6-(1-oxa-6-azaspiro[3.3]heptan-6-yl)pyridin-2-yl)piperidin-3-yl)methyl)methanesulfonamide] |  |  | 5.30 to 6.30 | > 8.00 | 
3 | O=C1NCCC12CCCN(c1cc(-c3cnc4ccc(C(F)F)nn34)ccn1)C2 (stereo not drawn) [II-156, 7-(4-(6-(Difluoromethyl)imidazo[1,2-b]pyridazin-3-yl)pyridin-2-yl)-2,7-diazaspiro[4.5]decan-1-one] |  |  | 5.30 to 6.30 | 6.00 to 8.00 | 
4 | Cc1nn(C)cc1[C@@H]1CN(c2cc(-c3cnc4ccc(C(F)(F)F)nn34)ncn2)C[C@H](C)O1 [II-759, (2R,6S)-2-(1,3-dimethyl-1H-pyrazol-4-yl)-6-methyl-4-(6-(6-(trifluoromethyl)imidazo[1,2-b]pyridazin-3-yl)pyrimidin-4-yl)morpholine] |  |  | < 5.30 |  | 6.00 to 8.00
5 | FC(F)(F)c1ccc2ncc(-c3ccnc(N4CCOC(c5cn[nH]c5)C4)c3)n2n1 (single isomer, unassigned) [II-229, 2-(1H-Pyrazol-4-yl)-4-(4-(6-(trifluoromethyl)imidazo[1,2-b]pyridazin-3-yl)pyridin-2-yl)morpholine] |  |  | > 6.30 | > 8.00 | 
6 | NC(=O)[C@H]1CCCN(c2cc(-c3cnc4ccc(Cl)nn34)ccn2)C1 [II-189, (S)-1-(4-(6-Chloroimidazo[1,2-b]pyridazin-3-yl)pyridin-2-yl)piperidine-3-carboxamide] |  |  | 5.30 to 6.30 | 6.00 to 8.00 | 
7 | CS(=O)(=O)NCC1COCCN(c2cc(-c3cnc4ccc(C(F)F)nn34)ncn2)C1 (stereo not drawn) [II-481, N-((4-(6-(6-(Difluoromethyl)imidazo[1,2-b]pyridazin-3-yl)pyrimidin-4-yl)-1,4-oxazepan-6-yl)methyl)methanesulfonamide] |  |  | 5.30 to 6.30 | 6.00 to 8.00 | 
8 | CN(CC1CCCN(c2cc(-c3cnc4ccc(C(F)F)nn34)ccn2)C1)S(C)(=O)=O (stereo not drawn) [II-109, N-((1-(4-(6-(Difluoromethyl)imidazo[1,2-b]pyridazin-3-yl)pyridin-2-yl)piperidin-3-yl)methyl)-N-methylmethanesulfonamide] |  |  | 5.30 to 6.30 | 6.00 to 8.00 | 
9 | Cc1ccc2ncc(-c3cc(N4CCO[C@H](CNS(C)(=O)=O)C4)ncn3)n2n1 [II-328, (S)—N-((4-(6-(6-Methylimidazo[1,2-b]pyridazin-3-yl)pyrimidin-4-yl)morpholin-2-yl)methyl)methanesulfonamide] |  |  | 5.30 to 6.30 | 6.00 to 8.00 | 
10 | NS(=O)(=O)N1CCCN(c2cc(-c3cnc4ccc(C(F)F)nn34)ncn2)CC1 [II-24, 4-(6-(6-(Difluoromethyl)imidazo[1,2-b]pyridazin-3-yl)pyrimidin-4-yl)-1,4-diazepane-1-sulfonamide] |  |  | < 5.30 | 6.00 to 8.00 | 
11 | CC1CC(F)(F)C(CNS(C)(=O)=O)CN1c1cc(-c2cnc3ccc(C(F)F)nn23)ncn1 (stereo not drawn) [II-433, N-((1-(6-(6-(Difluoromethyl)imidazo[1,2-b]pyridazin-3-yl)pyrimidin-4-yl)-4,4-difluoro-6-methylpiperidin-3-yl)methyl)methanesulfonamide] |  |  | > 6.30 | > 8.00 | 
12 | CS(=O)(=O)NCC1CCCN(c2cc(-c3cnc4ccc(C(F)F)nn34)cc(N3CCOCC3)n2)C1 (stereo not drawn) [II-66, N-((1-(4-(6-(Difluoromethyl)imidazo[1,2-b]pyridazin-3-yl)-6-morpholinopyridin-2-yl)piperidin-3-yl)methyl)methanesulfonamide] |  |  | 5.30 to 6.30 | > 8.00 | 
13 | CC1CN(c2cc(-c3cnc4ccc(C(F)F)nn34)ncn2)CC1CNS(C)(=O)=O (stereo not drawn) [II-18, N-((1-(6-(6-(Difluoromethyl)imidazo[1,2-b]pyridazin-3-yl)pyrimidin-4-yl)-4-methylpyrrolidin-3-yl)methyl)methanesulfonamide] |  |  | > 6.30 | > 8.00 | 
14 | FC(F)(F)c1ccc2ncc(-c3ccnc(N4CCCC(c5c[nH]cn5)C4)c3)n2n1 (stereo not drawn) [II-740] |  |  | > 6.30 | > 8.00 | 

Results, then the molecule that gave them:

Row | pIC50 ([1]; compounds of Formula IV) | pKi [2, 3] | pIC50 ([1]; compounds of Formula II) | pKi [2, 4] | pIC50 [2, 4] | SMILES
15 | > 6.30 | 7.00 to 8.00 |  |  |  | CC1CN(c2ccnc(-c3cnc4cnc(C(F)(F)F)cn34)n2)CC(c2cn[nH]c2)O1 (single isomer, unassigned) [IV-13, 2-Methyl-6-(1H-pyrazol-4-yl)-4-(2-(6-(trifluoromethyl)imidazo[1,2-a]pyrazin-3-yl)pyrimidin-4-yl)morpholine]
16 | 5.30 to 6.30 | > 8.00 |  |  |  | CC1CN(c2cc(N=S(C)(C)=O)nc(-c3cnc4cnc(C(F)(F)F)cn34)n2)C(C)C(c2cn[nH]c2)N1 (stereo not drawn) [IV-648, ((6-(2,5-Dimethyl-3-(1H-pyrazol-4-yl)piperazin-1-yl)-2-(6-(trifluoromethyl)imidazo[1,2-a]pyrazin-3-yl)pyrimidin-4-yl)imino)dimethyl-λ^6-sulfanone]
17 | > 6.30 | > 8.00 |  |  |  | CC1CN(c2nccc(-c3cnc4cnc(C(F)(F)F)cn34)n2)CC(c2cn[nH]c2)O1 (single isomer, unassigned) [IV-201, 2-Methyl-6-(1H-pyrazol-4-yl)-4-(4-(6-(trifluoromethyl)imidazo[1,2-a]pyrazin-3-yl)pyrimidin-2-yl)morpholine]
18 | < 5.30 | 6.00 to 7.00 |  |  |  | CC(=O)N1CC=C(c2ccnc(-c3cnc4cnc(C(F)F)cn34)n2)CC1 [IV-156, 1-(4-(2-(6-(Difluoromethyl)imidazo[1,2-a]pyrazin-3-yl)pyrimidin-4-yl)-3,6-dihydropyridin-1(2H)-yl)ethan-1-one]
19 | < 5.30 | 6.00 to 7.00 |  |  |  | NC(=O)C1COCCN(c2ccnc(-c3cnc4cnc(C(F)F)cn34)n2)C1 (stereo not drawn) [IV-117, 4-(2-(6-(Difluoromethyl)imidazo[1,2-a]pyrazin-3-yl)pyrimidin-4-yl)-1,4-oxazepane-6-carboxamide]
20 | 5.30 to 6.30 | 6.00 to 7.00 |  |  |  | FC(F)(F)c1cn2c(-c3nccc(N4CCC(C5CCOC5)C4)n3)cnc2cn1 (stereo not drawn) [IV-608, 3-(4-(3-(Tetrahydrofuran-3-yl)pyrrolidin-1-yl)pyrimidin-2-yl)-6-(trifluoromethyl)imidazo[1,2-a]pyrazine]
21 | 5.30 to 6.30 | 7.00 to 8.00 |  |  |  | CC1CCN(c2ccnc(-c3cnc4cnc(C(F)F)cn34)n2)CC1C(N)=O (stereo not drawn) [IV-108, 1-(2-(6-(Difluoromethyl)imidazo[1,2-a]pyrazin-3-yl)pyrimidin-4-yl)-4-methylpiperidine-3-carboxamide]
22 | > 6.30 | > 8.00 |  |  |  | CC1CN(c2ccnc(-c3cnc4cnc(C(F)(F)F)cn34)n2)C(C)C(c2cn[nH]c2)N1 (stereo not drawn) [IV-222, 3-(4-(2,5-Dimethyl-3-(1H-pyrazol-4-yl)piperazin-1-yl)pyrimidin-2-yl)-6-(trifluoromethyl)imidazo[1,2-a]pyrazine]
23 | < 5.30 | 6.00 to 7.00 |  |  |  | O=c1[nH]nc2n1CCN(c1ccnc(-c3cnc4cnc(C(F)F)cn34)n1)C2 [IV-83, 7-(2-(6-(Difluoromethyl)imidazo[1,2-a]pyrazin-3-yl)pyrimidin-4-yl)-5,6,7,8-tetrahydro-[1,2,4]triazolo[4,3-a]pyrazin-3 (2H)-one]
24 | < 5.30 | 6.00 to 7.00 |  |  |  | CS(=O)(=O)NC[C@H]1CCCN(c2ccnc(-c3cnc4cnc(C(F)F)cn34)n2)C1 [IV-29, (S)—N-((1-(2-(6-(Difluoromethyl)imidazo[1,2-a]pyrazin-3-yl)pyrimidin-4-yl)piperidin-3-yl)methyl)methanesulfonamide]
25 | < 5.30 | 6.00 to 7.00 |  |  |  | CC1CN(c2ncc(F)c(-c3cnc4cnc(C(F)(F)F)cn34)n2)CC(c2cn[nH]c2)N1 (stereo not drawn) [IV-422, 3-(5-Fluoro-2-(3-methyl-5-(1H-pyrazol-4-yl)piperazin-1-yl)pyrimidin-4-yl)-6-(trifluoromethyl)imidazo[1,2-a]pyrazine]
26 | 5.30 to 6.30 | > 8.00 |  |  |  | CC1C(C(N)=O)CCCN1c1ccnc(-c2cnc3cnc(C(F)(F)F)cn23)n1 (single isomer, unassigned) [IV-499, 2-Methyl-1-(2-(6-(trifluoromethyl)imidazo[1,2-a]pyrazin-3-yl)pyrimidin-4-yl)piperidine-3-carboxamide]
27 | 5.30 to 6.30 | 7.00 to 8.00 |  |  |  | NC(=O)c1cn2c(-c3cccc(N4CCN5C(=O)CCC[C@H]5C4)n3)cnc2cn1 [IV-228, (S)-3-(6-(6-Oxooctahydro-2H-pyrido[1,2-a]pyrazin-2-yl)pyridin-2-yl)imidazo[1,2-a]pyrazine-6-carboxamide]
28 | < 5.30 | 6.00 to 7.00 |  |  |  | Cc1noc([C@@H]2CN(c3ccnc(-c4cnc5cnc(C(F)(F)F)cn45)n3)C[C@H](C)O2)n1 [IV-712]
29 | > 6.30 | > 8.00 |  |  |  | CC1CN(c2ccnc(-c3cnc4cnc(C(F)(F)F)cn34)n2)CC(c2cn[nH]c2C(F)(F)F)N1 (single isomer, unassigned) [IV-474, 3-(4-(3-Methyl-5-(5-(trifluoromethyl)-1H-pyrazol-4-yl)piperazin-1-yl)pyrimidin-2-yl)-6-(trifluoromethyl)imidazo[1,2-a]pyrazine]
30 | > 6.30 | > 8.00 |  |  |  | CC1C(c2cn[nH]c2)CCCN1c1ccnc(-c2cnc3cnc(C(F)(F)F)cn23)n1 (stereo not drawn) [IV-388, 3-(4-(2-Methyl-3-(1H-pyrazol-4-yl)piperidin-1-yl)pyrimidin-2-yl)-6-(trifluoromethyl)imidazo[1,2-a]pyrazine]
